Measurements as given in patent US11535627B2, “Pyrimidine derivative compound, pharmaceutically acceptable salt thereof, preparation process thereof, and pharmaceutical composition using the same” (Spark Biopharma, Inc., priority 2016, dated 2022).
“Also recorded” adds a separate entry of the source.

Assays:
LRS-RagD interaction = LRS-RagD interaction (Homo sapiens, UniProt Q9P2J5); assay: ELISA of LRS-RagD interaction; assay type: binding
Description: His-tagged human LRS proteins were diluted in carbonate buffer (100 mM, pH 9.6) to the concentration of 0.5 ng μl^−1. […] Protein from each well was removed and washed three times with PBS mixed with 0.05% Tweed® 20 (PBST), subjected to blocking with PBS containing 5% bovine serum albumin (BSA) for 2 hours. Each well was washed with PBST, followed by the treatment of a compound and GST-tagged human RagD protein simultaneously for 3 hours. GST protein itself was used as a negative control. Each well was treated with GST antibody diluted in PBST and incubated at room temperature for 1 h. After washing with PBST, the HRP-conjugated anti-horse IgG secondary antibody was incubated at room temperature for 1 h. TMB was added to each well for colorimetric development. […] To stop the chemical reaction, the treatment with 1 m H3PO4 was done. Finally, absorbance at 450 nm were measured.

mTORC1 [1] = assay: Western blotting, mTORC1 signalling pathway in HEK293T cells; assay type: cell-based
Description: HEK293T cell was cultured in Dulbecco modified eagle medium (DMEM) with 10% (v/v) fetal bovine serum (FBS) and 1% (v/v) antibiotic-antimycotic solution. […] The cells were cultured in 100-mm culture dish in an incubator at 37° C., in 5% CO2.
Cells were lysed with Radio-ImmunoPrecipitation Assay (RIPA) buffer (50 mM Tris, pH 7.8, 150 mM NaCl, 0.5% deoxycholate, 1% IGEPAL CA-630, protease inhibitor cocktail, and phosphatase inhibitors). Protein was obtained by transferring supernatant after centrifugation at 15000 rpm for 20 min. Protein concentration was measured with Micro BCA™ protein assay kit. Overall protein sampling procedure was done at 4° C. Prepared protein samples were analyzed with SDS-PAGE. Protein after electrophoresis was transferred into nitrocellulose membrane. Membrane was blocked with TBST mixed with 2% BSA over at least 1 h at r.t. Primary antibodies were incubated overnight at 4° C. […] After washing with TBST, HRP-labeled anti-rabbit IgG secondary antibody was treated at room temperature for 1 h. After washing with TBST, developing by Amersham ECL prime solution was done. Chemiluminescent signal was imaged by ChemiDoc™ MP imaging system.

AMPK signaling pathways = assay: Western blotting, phospho-T172 AMPKα in HEK293T cells; assay type: cell-based
Description: (§1) HEK293T cell was cultured in Dulbecco modified eagle medium (DMEM) with 10% (v/v) fetal bovine serum (FBS) and 1% (v/v) antibiotic-antimycotic solution. HeLa, DU145, and Ca Ski cells were cultured in RPMI 1640 medium with 10% (v/v) FBS and 1% (v/v) antibiotic-antimycotic solution. The cells were cultured in 100-mm culture dish in an incubator at 37° C., in 5% CO2.
(§2) Cells were lysed with Radio-ImmunoPrecipitation Assay (RIPA) buffer (50 mM Tris, pH 7.8, 150 mM NaCl, 0.5% deoxycholate, 1% IGEPAL CA-630, protease inhibitor cocktail, and phosphatase inhibitors). Protein was obtained by transferring supernatant after centrifugation at 15000 rpm for 20 min. Protein concentration was measured with Micro BCA™ protein assay kit. Overall protein sampling procedure was done at 4° C. Prepared protein samples were analyzed with SDS-PAGE. Protein after electrophoresis was transferred into nitrocellulose membrane. Membrane was blocked with TBST mixed with 2% BSA over at least 1 h at r.t. Primary antibodies were incubated overnight at 4° C. […]

[2] = test system: mTORC2 signaling pathways; assay: Western blotting, phospho-S473 Akt in HEK293T cells; assay type: cell-based
Description: as §1, §2

Human LRS proteins = biological target: T1, Human LRS proteins (Homo sapiens, UniProt Q9P2J5); assay: Surface plasmon resonance (SPR) binding to LRS
T1 construct: His
Description: The dissociation […] constant (KD) toward His-LRS proteins was determined by using SPR instrument (Biacore T100) at the national center for inter-university research facilities (NCIRF) in Seoul National University. The carboxyl group on the surface of CMS chip was able to be replaced with protein by forming reactive succinimide ester with 1-ethyl-3-(3-dimethylaminopropyl)-carbodiimide (EDC) and N-hydroxysuccinimide (NHS). Human LRS proteins (1.5×PBS, pH 7.3) were immobilized on flow cell 2 (imed RU; 12000) by leading to amide bond formation with NHS ester. The residual NHS ester was quenched with 1 M ethanolamine-HCl (pH 8.0). Amide bond formation alone, without any protein t, was performed on flow cell 1 as a control. The immobilization process was proceeded on PBS buffer. After the immobilization of hLRS, compounds were flowed for 60 s at a flow rate of 20 μl min^−1 in various concentrations from 1 μM to […] was then flowed at the same flow rate for 200 s for dissociation of compounds. As a running buffer, 1×PBS (pH 7.3) containing 3% DMSO and 0.005% P2O was used. The experiment was performed at 25° C. Data analysis was done by using Biacore T100 Evaluation software. […] The dissociation constant (KD) was calculated by fitting to the 1:1 binding model.

[3] = test system: HeLa human cervical cancer cells; assay: Western blot analysis of LC3 and p62 (autophagy) in HeLa cells; assay type: cell-based
Description: as §1
Cells were lysed with Radio-ImmunoPrecipitation Assay (RIPA) buffer (50 mM Tris, pH 7.8, 150 mM NaCl, 0.5% deoxycholate, 1% IGEPAL CA-630, protease inhibitor cocktail, and phosphatase inhibitors). Protein was obtained by transferring supernatant after centrifugation at 15000 rpm for 20 min. Protein concentration was measured with Micro BCA™ protein assay kit. Overall protein sampling procedure was done at 4° C. Prepared protein samples were analyzed with SDS-PAGE. Protein after electrophoresis was transferred into nitrocellulose membrane. Membrane was blocked with TBST mixed with 2% BSA over at least 1 h at r.t. Primary antibodies were incubated overnight at 4° C. The treatment concentration was as follows: Anti-LC3B (ab51520); 1:1000, anti-S6K1 (ab32359); 1:1000, anti-phospho-T389 S6K1 (ab2571); 1:800, anti-p62 (CST 5114); 1:1000, anti-glyceraldehyde-3-phosphate dehydrogenase (GAPDH) (CST 2118); 1:1000, anti-phospho-S65 4E-BP1 (CST 9451); 1:1000, anti-phospho-S757 ULK1 (CST 6888); 1:800, anti-phospho-S473 Akt (CST 4058); 1:1000, anti-phospho-T172 AMPKα (CST 2531). After washing with TBST, HRP-labeled anti-rabbit IgG secondary antibody was treated at room temperature for 1 h. After washing with TBST, developing by Amersham ECL prime solution was done. Chemiluminescent signal was imaged by ChemiDoc™ MP imaging system.

HeLa cells = assay: mCherry-GFP-LC3 puncta imaging; assay type: cell-based, human; details: 6 h, 200 nM Rap, 10 nM Baf, 20 μM 21f
Description: HeLa cells were seeded in chambered coverglass from Nunc and incubated for 24 h. mCherry-GFP-LC3 plasmid was transfected to the cells using Lipofectamine™ 2000 solution. Transfection was proceeded according to manufacturer's protocol.
DeltaVision Elite imaging system was used for the imaging of mCherry-GFP-LC3 transfected HeLa cell. For live-cell imaging, chamber was maintained at 37° C. and in 5% CO2. […] The wavelength range of the used filters is as follows: mCherry (Excitation: 575/25 nm, Emission: 625/45 nm); GFP (Excitation: 475/28 nm, Emission: 525/48 nm). Images were processed and analyzed with SoftWorks deconvolution software.

HEK293T cells = assay: Cell proliferation assay (BrdU); assay type: cell-based; details: 5 μM, in the presence of Leu
Description: HEK293T cells were seeded in 96-well plate from CORNING. 24 h after seeding, the compound diluted with DMEM at 5 μM of final concentration was treated in cells while leucine-free DMEM was treated in cells as a control. Cell division assay was done with WSTs assay and BrdU colorimetric kit, following the manufacturer's protocol.

mTORC1 [4] = assay: Western blotting, mTORC1 signalling in Ca Ski cells; assay type: cell-based
Description: as §1, §2

mTORC1 [5] = assay: Western blotting, mTORC1 signalling in DU145 cells; assay type: cell-based
Description: as §1, §2

[6] = HEK293T cells, 20, 10, 5 and 1 μM, 3 h
[7] = 6 h, 200 nM Rap, 10 nM Baf, 20 μM 21f, compared with DMSO

T1 sequence (Q9P2J5 whole entry): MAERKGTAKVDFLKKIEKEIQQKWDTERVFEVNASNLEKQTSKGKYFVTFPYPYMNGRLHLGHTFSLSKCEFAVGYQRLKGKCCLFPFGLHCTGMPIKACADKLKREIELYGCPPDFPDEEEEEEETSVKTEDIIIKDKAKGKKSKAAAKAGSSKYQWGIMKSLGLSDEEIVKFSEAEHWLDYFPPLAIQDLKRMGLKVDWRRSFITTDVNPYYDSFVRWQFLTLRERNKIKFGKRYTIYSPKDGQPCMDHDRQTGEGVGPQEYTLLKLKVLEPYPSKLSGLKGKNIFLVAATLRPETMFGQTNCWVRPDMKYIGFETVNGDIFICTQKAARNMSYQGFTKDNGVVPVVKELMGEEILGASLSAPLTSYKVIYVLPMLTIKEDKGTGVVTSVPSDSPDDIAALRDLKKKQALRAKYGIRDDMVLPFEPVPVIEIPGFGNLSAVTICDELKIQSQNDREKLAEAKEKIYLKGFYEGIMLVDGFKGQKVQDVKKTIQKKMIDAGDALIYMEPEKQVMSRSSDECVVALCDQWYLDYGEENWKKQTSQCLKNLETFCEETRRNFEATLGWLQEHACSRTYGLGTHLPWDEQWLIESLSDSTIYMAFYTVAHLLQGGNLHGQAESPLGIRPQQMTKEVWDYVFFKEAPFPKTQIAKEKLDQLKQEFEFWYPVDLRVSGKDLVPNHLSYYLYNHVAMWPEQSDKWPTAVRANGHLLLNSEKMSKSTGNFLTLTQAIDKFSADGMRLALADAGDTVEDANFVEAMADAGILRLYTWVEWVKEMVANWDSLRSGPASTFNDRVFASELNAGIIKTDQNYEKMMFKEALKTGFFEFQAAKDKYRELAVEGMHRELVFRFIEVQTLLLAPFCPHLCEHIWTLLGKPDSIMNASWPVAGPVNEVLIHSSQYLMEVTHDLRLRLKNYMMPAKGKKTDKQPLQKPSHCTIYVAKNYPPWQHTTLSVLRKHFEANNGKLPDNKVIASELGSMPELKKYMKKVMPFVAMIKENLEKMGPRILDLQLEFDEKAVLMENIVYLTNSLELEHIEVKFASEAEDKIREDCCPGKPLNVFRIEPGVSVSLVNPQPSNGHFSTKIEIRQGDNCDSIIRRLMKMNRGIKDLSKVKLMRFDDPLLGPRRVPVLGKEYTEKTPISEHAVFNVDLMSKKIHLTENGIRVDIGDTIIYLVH
Chain of LRS-RagD interaction (Q9P2J5 whole entry): as above

Cc1cc(C)cc(CN2C[C@H]3CN3Cc3c(N(C)Cc4ccccc4)ncnc32)c1 (stereo partly shown) [Compound 21f]
dose-dependent inhibition of the LRS-RagD interaction (dose-response curves in ELISA) (LRS-RagD interaction): inhibit the LRS-RagD interaction in a dose-dependent manner
reduction of LRS-RagD interaction by ELISA (LRS-RagD interaction): 30.2%
inhibition degree against phospho-S757 ULK1 (mTORC1 [1]; HEK293T cells, 0-24 h, 21f 10 μM, rapamycin 500 nM): high inhibition degree
Phospho-T389 S6K1, time course (mTORC1 [1]; HEK293T cells, 10 μM, 0-24 h): reduced in cells treated with 21f as time passed
duration of the effect on mTORC1 within cells (mTORC1 [1]; HEK293T cells, 10 μM, 0-24 h): at least 12 h
phospho-S65 4E-BP1, time course (mTORC1 [1]; HEK293T cells, 10 μM, 0-24 h): reduced in cells treated with 21f as time passed
phospho-S757 ULK1, time course (mTORC1 [1]; HEK293T cells, 10 μM, 0-24 h): reduced in cells treated with 21f as time passed
amount of phospho-T389 S6K1 (mTORC1 [1]; HEK293T cells, 20 μM, 3 h): reduced amount of phospho-T389 S6K1
phosphorylation suppression of S6K1 by western blotting (mTORC1 [1]; HEK293T cells, 20 μM, 3 h, phospho-T389 S6K1 relative to DMSO): 48.9%
Phospho-T389 S6K1 (mTORC1 [1]; [6]): reduced in cells treated with 21f in a dose-dependent manner
phospho-S65 4E-BP1 (mTORC1 [1]; [6]): reduced in cells treated with 21f in a dose-dependent manner
phospho-S757 ULK1 (mTORC1 [1]; [6]): reduced in cells treated with 21f in a dose-dependent manner
phospho-T172 AMPKα, time course (AMPK signaling pathways; HEK293T cells, 10 μM, 0-24 h): no effects
phospho-T172 AMPKα (AMPK signaling pathways; [6]): no effects
phospho-S473 Akt, time course ([2]; HEK293T cells, 10 μM, 0-24 h): no effects
phospho-S473 Akt [2, 6]: no effects
Kd (Human LRS proteins): 4.5 µM
concentration-dependent binding to LRS (SPR) (Human LRS proteins; purified LRS): concentration-dependent binding to LRS
LC3 I/LC3 II ratio [3, 7]: lowering LC3 I/LC3 II ratio
p62 level [3, 7]: stimulated the degradation of p62; also recorded: reducing p62 level
cellular level of LC3 II ([3]; in the presence of Leu): increased the cellular level of LC3 II
mCherry and GFP fluorescence (mCherry-GFP-LC3) (HeLa cells): red fluorescence
cellular division level by BrdU assay (HEK293T cells): suppressed cell proliferation even in the presence of Leu; also recorded: cellular division was inhibited as treatment time passed
western blotting results, procedure of FIG. 15d (mTORC1 [4]): same as those from HEK293T cells
western blotting results, procedure of FIG. 15d (mTORC1 [5]): same as those from HEK293T cells
